The series can be described thus: Urinary excretion of amifampridine and 3-N-acetylamifampridine in rats. Particulars: Sprague Dawley, rat, urine, oral, 2 mg/kg, 24 h, oral amifampridine 2 mg/kg, read-out: total urinary recovery. In kind it is in vivo, rat. On the procedure: Urine samples were collected at intervals of 0–4, 4–8, and 8–24 h after the administration of amifampridine to control and acetaminophen-treated rats (n = 6), as described above, and were diluted 500-fold with potassium phosphate buffer. An amount of 200 μL of IS was then added to the samples and vortexed for a minute. After centrifugation at 14,000 rpm for 15 min at 4 °C, the supernatant was transferred into vials for quantification of amifampridine and 3-N-acetylamifampridine.

Where two headings read alike, the source gives them in different places.

Take `Nc1ccncc1N` [amifampridine]: the dose excreted worked out at 18.9% (acetaminophen-treated rats) and 6.7% (control rats).

Source of the values: paper PMC10221159, “Investigation of N-Acetyltransferase 2-Mediated Drug Interactions of Amifampridine: In Vitro and In Vivo Evidence of Drug Interactions with Acetaminophen” (Pharmaceutics, 2023).
